Data on 1 compound can be found in patent US8093273B2, “Flavanoids and isoflavanoids for the prevention and treatment of cardiovascular diseases” (Resverlogix Corp., priority 2004, dated 2012).

The test system of experiment [1] is hApoA-I transgenic mice. Put plainly: hApoA-I transgenic mice, oral gavage for 14 days. In kind it is in vivo. To be noted: Mus musculus, po, 336 h, relative to pretreatment, read-out: ApoA-I (% change); for change in vivo at 10 mg/kg: 10 mg/kg BID 14 days. In short, it runs like this:
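Male hApoA-I transgenic mice (7–8 weeks) dosed orally by gavage daily for 14 days, BID or SID, as suspensions at 5 mL/kg in 0.5% methylcellulose/1% Tween 80 or F-101; fenofibrate 100 mg/kg as positive control. After a 4 h fast on day 15, plasma ApoA-I, HDL-C, total cholesterol and triglycerides measured relative to pre-bleed-matched groups.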

Experiment [2] deals with human ApoA-I promoter. Put plainly: ApoA-I promoter induction in Caco-2 intestinal cells (pAI.474-Luc luciferase reporter). The class given is cell-based. To be noted: Caco-2 cells, 15 μM, 48 hours incubation, luciferase activity vs control samples. In short, it runs like this:
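Caco-2 cells stably carrying the human ApoA-I promoter–firefly luciferase construct (pAI.474-Luc) were starved 24 h in 0.5% FBS medium, then exposed to compound at 0 to 100 μM final for 48 h at 37° C. Luciferase activity in lysates was normalized to Bradford protein and compared with solvent-only and untreated controls.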
In general terms: In a reporter assay the amount or activity of a reporter protein is the signal.

Read-outs that look alike come from different tables or passages of the source.

Turning to `O=c1cc(-c2ccc(O)cc2)oc2ncccc12` [Example 34, 2-(4-Hydroxy-phenyl)-pyrano[2,3-b]pyridin-4-one], in experiment [1] (Table 6 first group, 3 mg/kg BID 14 days, Control 1 (0.5% MC & 1% Tween 80) 11.94), the change in vivo at 3 mg/kg is 18.9%. Further, the change in vivo at 10 mg/kg was 36.6% in experiment [1] (Table 6 first group, Control 1 11.94) and 30.9% in experiment [1] (Table 6 third group, Control 3 (F-101) (6.32)). Further, the change in vivo at 30 mg/kg in experiment [1] (Table 6 first group, 30 mg/kg BID 14 days, Control 1 11.94) is 47.5%. The “ApoA-I Promoter Induction” value in experiment [2] was “increased”.
